The source of these data is article PMC12186843, “Targeting GABAergic Hypofunction Associated with Schizophrenia: Identification of α1β2γ2GABA‑A Receptor Ligands with Neuroprotective and Antipsychotic Properties” (ACS Chemical Neuroscience, 2025).

For data set [1], the system named is MDR1-MDCKII cell line. Put plainly: A–B and B–A permeability assay in MDR1-MDCKII cell line. How it is done: The A–B and B–A permeability assay using the MDR1-MDCKII cell line was conducted at Eurofins Discovery according to a well-established protocol.
The subject of data set [2] is SH-SY5Y cells. Put plainly: Intracellular calcium concentration after 6-OHDA (Fluo-4). The format is cell-based, human. As to conditions: 50 μM pretreatment 1 h, then 6-OHDA 250 μM 1 h. How it is done: 7 (A). Effect of 6-Hydroxydopamine (6-OHDA) on intracellular calcium concentration [Ca^2+] determined by Fluo-4 AM. After pretreatment with tested compounds (50 μM) or vehicle (0.5% DMSO, v/v) for 1 h, the cells were incubated with 6-Hydroxydopamine (6-OHDA, 250 μM) for 1 h. 6-OHDA control: cells treated with 250 μM of 6-OHDA. […]. DMSO control: cells treated with 0.5% DMSO only. Data are presented as the mean ± SD from 2–3 independent experiments. Experiments were carried on with ImageXpress Micro XLS (Molecular Devices). (B) The level of ROS generation was determined by Cell ROX dye. After pretreatment with tested compounds (50 μM) or vehicle (0.5% DMSO, v/v) for 1 h, the cells were incubated with hydrogen peroxide (H2O2, 300 μM) for 1 h. H2O2 control: cells treated with H2O2 (300 μM). DMSO control: cells treated with 0.5% DMSO only. Data are presented as the mean ± SD from 2–3 independent experiments. Experiments were carried on with the ImageXpress Micro XLS (Molecular Devices).
The SH-SY5Y human neuroblastoma cell line was maintained according to established protocols. The cells, obtained from the American Type Culture Collection (ATCC), were cultured in Dulbecco’s Modified Eagle’s Medium (DMEM, high glucose; Thermo Fisher), supplemented with 10% fetal bovine serum (Thermo Fisher), 100 IU/ml penicillin (Merck), and 100 μg/mL streptomycin (Merck). They were grown in 75 cm^2 flasks (Nunc) at 37 °C in a humidified atmosphere containing 5% CO2. For compound evaluation, SH-SY5Y cells were plated in 96-well plates (Falcon) at a density of 2 × 10^4 cells per well. The cells were allowed to adhere and grow for 24 h in an incubator set to 37 °C and 5% CO2 before starting the experiments. Stock solutions of both test and reference compounds were prepared at a concentration of 10^–2 M. A minimum of 1 mg of each compound was dissolved in dimethyl sulfoxide (DMSO). Serial dilutions were made in DMSO, then further diluted in PBS, mixed, and added to the cell culture medium.
The intracellular Ca^2+ levels were assessed using a homogeneous cell-based assay with the Fluo-4 Direct Calcium Assay Kit (Thermo Fisher). Following incubation with the tested compounds, the supernatant was discarded, and the cells were incubated with 1 μM Fluo-4/AM in FluoroBrite DMEM (Thermo Fisher) for 1 h at 37 °C. The results were expressed as a percentage relative to the control (DMSO). Fluorescence intensity was recorded using the ImageXpress Micro XLS system (Molecular Devices).
On the technique in general: A change in cytosolic calcium serves as a functional read-out for many receptors and channels.

The subject of data set [3] is Wistar rats. Put plainly: Amphetamine-induced hyperlocomotion. The format is in vivo, rat. As to conditions: i.p., doses of 3.0 mg/kg and 10.0 mg/kg, amphetamine 1.0 mg/kg i.p., p < 0.01. How it is done: (§1) 8 (A). […] The dose of 0 mg/kg corresponds to subjects treated with vehicle and amphetamine (1.0 mg/kg, i.p.). Data are presented as the mean ± SEM (n = 8). One-way ANOVA F(3,28)=0.2, p > 0.05, one-way ANOVA F(3,28)=[…], p < 0.01**. (B). […] The dose of 0 mg/kg corresponds to subjects treated with vehicle and MK-801 (0.3 mg/kg, i.p.). Data are presented as the mean ± SEM (n = 8). ** p < 0.01, Newman-Keuls test, F(3,28)=5.29, p = 0.005. (C) Effects of compound 9, administered at doses ranging from 1 to 10 mg/kg, on spontaneous locomotor activity in rats. Data are presented as the mean ± SEM (n = 8). One-way ANOVA F(3,28) = 0.3, p > 0.05, one-way ANOVA F(3,28) = 6.7, p < 0.01*.
(§2) All behavioral procedures were conducted using drug-naive male Wistar rats (Charles River, Sulzfeld, Germany), (n = 8/per group). Animals were housed in groups of four per standard plastic cage under controlled environmental conditions (temperature: 22 ± 1 °C, humidity: 60%, and a 12:12 light-dark cycle with lights on at 07:00 a.m.). […]
(§3) All procedures were performed in a sound-attenuated experimental room between 9:00 a.m. and 3:00 p.m. […] Locomotor activity was measured in black octagonal cages (80 cm diameter, 30 cm height) amid dim lighting and constant white noise (65 dB). […] Locomotor activity (cm/30 min) was recorded and analyzed using an automated motion monitoring system (Videomot, TSE, Bad Homburg, Germany). […]

Data set [4] concerns Wistar rats. Put plainly: MK-801-induced hyperlocomotion. The format is in vivo, rat. As to conditions: i.p., 1, 3 and 10 mg/kg, significant effect at 10 mg/kg, MK-801 0.3 mg/kg i.p. How it is done: as §1, §2, §3

`Cc1ccc2nc(-c3ccc(F)cc3)c(CC(=O)N3CCCC3)n2c1.O=C(O)C(O)C(O)C(=O)O` [Compound 17, 2-(4-Fluorophenyl)-6-methyl-3-(2-oxo-2-(pyrrolidin-1-yl)-ethyl)imidazo[1,2-a]pyridin-1-ium 3-carboxy-2,3-dihydroxy-propanoate]: in data set [1] (MDCK-MDR1 permeability assay), the “Substrate for P-glycoprotein (P-gp) efflux” value is listed as “not to be a substrate”. Further, in data set [1] (pH 7.4/7.4, 6 and 17 at 10 μM), the “Permeability A–B” value was 55.6 10^–6 cm/s and the “Permeability B–A” value is on record as 29.7 10^–6 cm/s. For the same compound, in data set [2], the “Reduction of intracellular calcium levels” value is recorded as 48%. Further, the “Effect on amphetamine-induced hyperlocomotion” value in data set [3] is recorded as “significantly reduced amphetamine-induced hyperlocomotion”. For the same compound, in data set [4], the “Effect on MK-801-induced hyperlocomotion” value was “reduced hyperlocomotion”.
